Assay results reported in US20210189341A1, “PLATELET DIAGNOSTIC IMAGING AGENTS” (Cellphire, Inc., priority 2019, published 2021).
Peptide text beside a SMILES is read from it.

How the values were obtained:
[1] = test system: platelets; assay: Flow cytometry of FITC-TAT loading into platelets in the presence of platelet anti-aggregation compounds; format: cell-based; settings: 100 μM FITC-TAT, 60 minutes, loading buffer, 37° C.
Description: FIG. 3 is a flow cytometry histogram of samples incubated with 100 μM FITC-TAT in the presence of platelet anti-aggregation compounds PGE1, GR144053, and eptifibatide.
Re-suspend platelets in loading buffer (Table 1) or desired incubation solution at a concentration of 500,000 platelets/μL and incubate at 37° C. with low frequency agitation on a rocker for up to 3 hours.
Wash platelets with loading buffer (Table 1) 3× to remove unloaded agents (e.g., FITC-TAT, FITC-labeled magnetic nanoparticles) and use the remaining sample for plate reader, flow cytometer, and/or microscope analysis.
The results for the above formulation are provided herein. A Tecan Infinite M200 Pro plate reader was used for quantification of MRI agent loading. A Novocyte flow cytometer was used to determine both MRI agent loading and percent of platelets effectively loaded. An Olympus microscope was used to visualize the loading into platelets.
Negative controls included 0 μM FITC-TAT in loading buffer and 50 μM fluorescein in loading buffer. All samples were incubated in loading buffer at 37° C. with low frequency agitation on a rocker.

[2] = test system: platelets (400 K/μL); assay: Magnetic resonance imaging of loaded platelet samples; settings: positive control
Text: FIGS. 9A-B show a schematic (FIG. 9A) and magnetic resonance imaging (FIG. 9B).
FIGS. 9A-B show a schematic (FIG. 9A) and magnetic resonance imaging (FIG. 9B). […] Sample 1A included loading buffer and platelets (400 K/μL), sample 1B included loading buffer alone, sample 2A included loading buffer, Gd-DOTA-CPP-FITC, and platelets (400 K/μL), and sample 2B included loading buffer and Gd-DOTA-FITC-CPP only (washed) as another negative control.

SMILES: Cl.Cl.Cl.N=C(N)c1ccc(N2CCN(C3CCN(CC(=O)O)CC3)CC2)cc1 [GR144053]
- effect of anti-aggregation compound on platelet loading / distribution of FITC-CPP (flow cytometry histogram) [1]: little to no effect

SMILES: [Cl][Gd]([Cl])[Cl] [GdCl3]
- detection by magnetic resonance imaging ([2]; 100 μM): detection
- detection by magnetic resonance imaging ([2]; 100 mM): detection

SMILES: CCCCC[C@H](O)/C=C/[C@H]1[C@H](O)CC(=O)[C@@H]1CCCCCCC(=O)O [PGE1, Prostaglandin E1]
- effect of anti-aggregation compound on platelet loading / distribution of FITC-CPP (flow cytometry histogram) [1]: improved platelet loading

SMILES: N=C(N)NCCCC[C@@H]1NC(=O)CCSSC[C@@H](C(N)=O)NC(=O)[C@@H]2CCCN2C(=O)[C@H](Cc2c[nH]c3ccccc23)NC(=O)[C@H](CC(=O)O)NC(=O)CNC1=O [eptifibatide] (HELM PEPTIDE1{[O=C(CCS[*:3])[*:2]].[N=C(N)NCCCC[C@H](N[*:1])C(=O)[*:2]].G.D.W.P.C.[am]}$PEPTIDE1,PEPTIDE1,1:R3-7:R3$$$V2.0)
- effect of anti-aggregation compound on platelet loading / distribution of FITC-CPP (flow cytometry histogram) [1]: little to no effect
